Tests used:
AR = molecular target: T1, AR (Homo sapiens, UniProt P10275); experiment: AR activation (max fold activation); format: cell-based; conditions: Table 4
T1 sequence (P10275 1-920): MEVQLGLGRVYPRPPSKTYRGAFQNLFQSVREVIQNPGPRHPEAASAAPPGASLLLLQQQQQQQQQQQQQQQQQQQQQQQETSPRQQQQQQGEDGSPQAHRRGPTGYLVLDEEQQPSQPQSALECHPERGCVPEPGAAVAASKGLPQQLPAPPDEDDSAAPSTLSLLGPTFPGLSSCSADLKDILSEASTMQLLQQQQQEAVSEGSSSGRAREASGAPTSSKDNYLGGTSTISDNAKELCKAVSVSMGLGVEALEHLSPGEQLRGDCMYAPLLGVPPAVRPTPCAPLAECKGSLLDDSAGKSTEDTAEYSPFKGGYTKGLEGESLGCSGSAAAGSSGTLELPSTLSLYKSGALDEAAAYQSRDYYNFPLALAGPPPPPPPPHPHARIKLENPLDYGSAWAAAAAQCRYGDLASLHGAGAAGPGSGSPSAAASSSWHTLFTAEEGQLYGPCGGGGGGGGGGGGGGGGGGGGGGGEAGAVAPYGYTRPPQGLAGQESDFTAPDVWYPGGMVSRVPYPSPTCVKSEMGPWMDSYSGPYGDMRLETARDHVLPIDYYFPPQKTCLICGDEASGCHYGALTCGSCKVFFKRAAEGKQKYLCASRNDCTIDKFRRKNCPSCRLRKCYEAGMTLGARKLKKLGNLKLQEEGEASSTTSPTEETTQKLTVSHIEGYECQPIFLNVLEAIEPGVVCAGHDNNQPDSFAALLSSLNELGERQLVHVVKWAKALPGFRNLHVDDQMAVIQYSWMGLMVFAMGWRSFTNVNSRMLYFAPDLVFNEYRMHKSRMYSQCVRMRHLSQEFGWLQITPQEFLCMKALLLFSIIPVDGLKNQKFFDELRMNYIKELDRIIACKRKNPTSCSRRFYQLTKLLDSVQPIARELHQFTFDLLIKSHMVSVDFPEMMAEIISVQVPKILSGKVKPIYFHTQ

NF-κB = NF-κB repression luciferase assay in A549 cells; format: cell-based, human; conditions: Table 5, TNF-α-stimulated A549 cells
Source text: Plasmids for GR (human, pSG5 backbone), AP1-Luc (synthetic AP1 response element upstream of a firefly luciferase gene), TAT3-Luc (three copies of the tyrosine aminotransferase glucocorticoid response element upstream of a firefly luciferase gene), β-galactosidase (used as a transfection control), as well as two stable transfected cells lines: an A549 (human, lung carcinoma) cell line stably transfected with a κB response element upstream of a firefly luciferase gene, (R. M. Nissen et al., Genes Dev., 14(18):2314-29, (2000)) and a U2OS (human, osteosarcoma) stably transfected with rat GR (I. Rogatsky, et al., Mol. Cell. Biol., 1997, 17, 3181-3193) were a gift of Professor Keith Yamamoto (Department of Biochemistry, University of California, San Francisco).
For NF-κB repression assays, A549 cells stably transfected with a luciferase reporter were grown under the same conditions as CV-1 cells. 50,000 cells/well were plated into 96 well plates and incubated for 12 h at 37° C. Either TNF-α alone or mixed with various hormone dilutions in media were then added to the cells, which were then incubated for 8 hours. Procedures for lysis and luciferase assay were performed as previously described. Protein content was used as a control in this case and the recommended procedures using the BCA Protein Assay Kit (Roche) were followed.

Row | AR max fold activation (AR) | EC50 (NF-κB; Homo sapiens, read-out: Repression NF-KB pot (EC50)) [µM] | Structure (SMILES) | Repression NF-KB % max repression (NF-κB) [%]
1 | 4.6 ± 1.6 | – | Cc1cc(O)cc(C)c1C(O)C1CCCC2=Cc3c(cnn3-c3ccc(F)cc3)CC21C (stereo not drawn) [Compound 227, 4-{[1-(4-Fluoro-phenyl)-4a-methyl-4,4a,5,6,7,8-hexahydro-1H-benzo[f]indazol-5-yl]-hydroxy-methyl}-3,5-dimethyl-phenol] | –
2 | – | 0.0264 | CC12Cc3cnn(-c4ccc(F)cc4)c3C=C1CCCC2C(O)c1cccc2[nH]ccc12 (stereo not drawn) [Compound 237, [1-(4-Fluoro-phenyl)-4a-methyl-4,4a,5,6,7,8-hexahydro-1H-benzo[f]indazol-5-yl]-(1H-indol-4-yl)-methanol] | 74

— patent US7947726B2, “Non-steroidal ligands for the glucocorticoid receptor, and compositions thereof” (The Regents of the University of California, priority 2002, dated 2011)
